Test system: Epo protein produced by Hep3B cell line
Assay: Epo protein produced by Hep3B cell line using ELISA method
Assay type: cell-based
Settings: Homo sapiens; Hep3B cells, 48 hours incubation, DMEM without serum; maximum concentration tested 100 micromolar; range stated jointly for ELISA and AlphaLISA
Protocol: Measure Epo Protein Produced by Hep3B Cell Line Using ELISA Method.
Hep3B cells obtained from the American Type Culture Collection (ATCC) are seeded at 2×10^4 cells/well in Dulbecco's Modified Eagle Medium (DMEM)+10% FBS in 96-well plates. Cells are incubated at 37 deg C./5% CO2/90% humidity (standard cell culture incubation conditions). After overnight adherence, medium is removed and replaced with DMEM without serum containing test compound or DMSO negative control. Following 48 hours incubation, cell culture medium is collected and assayed by ELISA to quantitate Epo protein.

## CC(C)(C)c1ccc(Cn2nc(-c3ccc(C(C)(C)C)cc3)c(O)c(C(=O)NCC(=O)O)c2=O)cc1 [Example 26, N-[(6-[4-(1,1-Dimethylethyl)phenyl]-2-{[4-(1,1-dimethylethyl)phenyl]methyl}-5-hydroxy-3-oxo-2,3-dihydro-4-pyridazinyl)carbonyl]glycine]
  EC50: > 100 µM

Reference: patent publication USRE44613E1, “N-substituted glycine derivatives: hydroxylase inhibitors” (GlaxoSmithKline LLC, priority 2007, dated 2013)
